# Experimental data published in article PMC7824787, “Design, Synthesis and In Vitro Investigation of Novel Basic Celastrol Carboxamides as Bio-Inspired Leishmanicidal Agents Endowed with Inhibitory Activity against Leishmania Hsp90” (Biomolecules, 2021).
# Where two headings read alike, the source gives them in different places.
# Tests used:
# [1] = system: L. infantum promastigotes; assay: Antileishmanial activity on L. infantum promastigotes (MTT); assay type: cell-based; settings: Leishmania infantum, 72 h, 23 °C, MTT, read-out: Leishmania Promastigotes IC50, L. infantum
# Procedure: Promastigote stage of L. infantum (MHOM/TN/80/IPT1, kindly provided by Dr. M. Gramiccia and Dr. T. Di Muccio, ISS, Roma) and L. tropica (MHOM/SY/2012/ISS3130) were cultured in RPMI 1640 medium (EuroClone) supplemented with 15% heat-inactivated fetal calf serum (EuroClone, Milan, Italy), 20 mM HEPES, and 2 mM L-glutamine at 23 °C. The MTT (3-[4.5-dimethylthiazol-2-yl]-2.5-diphenyltetrazolium bromide) method was used to estimate the 50% inhibitory concentration (IC50), with some modifications. Compounds were dissolved in DMSO and then diluted with medium to achieve the required concentrations. Test compounds were placed in 96 wells round bottom microplates and seven serial dilutions made. Amphotericin B was used as the reference antileishmanial drug. Parasites were diluted in complete medium to 5 × 10^6 parasites/mL and 100 μL of the suspension was seeded into the plates and incubated at 23 °C for 72 h. Then 20 μL of MTT solution (5 mg/mL) was added into each well, after 3 h the plates were centrifuged, the supernatants discarded and the resulting pellets dissolved in 100 μL of lysing buffer consisting of 20% (w/v) of a solution of SDS (Sigma), 40% of N,N-dimethylformamide (Merck) in H2O. The absorbance of the obtained solutions was measured at a wavelength of 550 nm with a reference at 650 nm with a microplate spectrophotometer (Synergy 4-Biotek, Milan, Italy) and analyzed with the Gen5® software for data processing.
# The results are expressed as IC50, the dose of compound that is necessary to inhibit cell growth by 50%; each IC50 value is the mean ± standard deviation of at least three separate experiments performed in duplicate.
# [2] = system: L. infantum promastigotes; assay: Morphological differentiation of Leishmania promastigotes; assay type: cell-based, Leishmania infantum; settings: 50 ng/mL, 23 °C, 48 h (Figure 6)
# Procedure: L. infantum promastigotes were diluted in complete medium to 4 × 10^7 parasites/mL and 250 µL of the suspension were seeded into the 24 wells plates and incubated at 23 °C in the presence of geldanamycin, CE or compound 2 at the final concentration of 50 ng/mL. Cultures without drugs incubated at 23 °C or at 37 °C were used as negative and positive control, respectively. After 24 or 48 h of incubation, parasite morphology was evaluated by optical microscopy at 100× (Eclipse Ti Series, Nikon, Minato, Tokyo, Japan) on Giemsa stained smears (a mixture of eosin, methylene blue and Azure-B diluted 1:10). The percent of round promastigotes in treated and non-treated cells was determined. Images were taken at the same magnification by using a digital camera (Nikon Digital Sight). About 500 promastigotes were counted in 4 random fields.
# The compounds were incubated (23 °C, physiological pH) with L. infantum promastigotes at a sub-IC50 concentration of 50 ng/mL. […] After 24 h and 48 h the presence of round, amastigote-like cells, was monitored (Figure 6). A negative and positive control experiment (NC and PC, Figure 6a,b) were also conducted growing the promastigotes at 23 °C and 37 °C, respectively.
# LbHsp90 = LbHsp90 (Leishmania braziliensis, UniProt A4HL70); assay: LbHsp90 ATPase kinetics (NADH-coupled enzymatic cascade); assay type: biochemical
# Chain of LbHsp90 (A4HL70 entry or part of it): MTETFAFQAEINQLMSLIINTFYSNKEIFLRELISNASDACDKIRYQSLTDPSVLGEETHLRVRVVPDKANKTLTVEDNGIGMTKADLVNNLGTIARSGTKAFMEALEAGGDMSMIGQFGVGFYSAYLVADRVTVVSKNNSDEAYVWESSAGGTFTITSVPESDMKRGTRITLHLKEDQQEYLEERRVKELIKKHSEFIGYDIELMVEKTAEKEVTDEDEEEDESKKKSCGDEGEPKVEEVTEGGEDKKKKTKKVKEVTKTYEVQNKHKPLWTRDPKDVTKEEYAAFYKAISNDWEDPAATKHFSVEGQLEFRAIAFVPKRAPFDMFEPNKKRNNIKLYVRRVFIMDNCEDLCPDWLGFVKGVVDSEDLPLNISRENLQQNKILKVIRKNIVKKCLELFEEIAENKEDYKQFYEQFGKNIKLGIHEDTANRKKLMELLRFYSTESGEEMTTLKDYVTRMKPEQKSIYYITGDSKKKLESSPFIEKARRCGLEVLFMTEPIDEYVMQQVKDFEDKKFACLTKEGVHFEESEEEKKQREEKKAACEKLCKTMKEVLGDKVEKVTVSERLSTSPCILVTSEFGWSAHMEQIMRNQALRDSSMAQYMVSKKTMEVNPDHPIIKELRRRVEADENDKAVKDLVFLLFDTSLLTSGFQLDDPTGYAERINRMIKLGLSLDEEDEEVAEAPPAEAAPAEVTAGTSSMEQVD
# Procedure: The reaction was initiated by the addition of ATP (1 mM) and absorbance changes at 346 nm were monitored for 30 min at 30 °C.
# Native LbHsp90 kinetics was measured as described but in the absence of DMSO. Two control experiments were run as follows: • (1) Efficiency of the enzymatic cascade by the used compounds: HEPES buffer (20 mM, pH 7.5) containing KCl (100 mM), MgCl2 (1 mM), ADP (1 mM), NADH (0.18 mM), L-lactate dehydrogenase (4 U mL^−1), phosphoenolpyruvate (1 mM), pyruvate kinase (2.5 U mL^−1); • (2) Interference of the tested compound(s) with the enzymatic cascade: HEPES buffer (20 mM, pH 7.5) containing KCl (100 mM), MgCl2 (1 mM), ADP (1 mM), NADH (0.18 mM), L-lactate dehydrogenase (4 U mL^−1), phosphoenolpyruvate (1 mM), pyruvate kinase (2.5 U mL^−1) and 50 μM compound.
# Accordingly, an in vitro assay developed for the evaluation of non-competitive allosteric modulators, which exploits ATPase kinetics data, was used. Briefly, the decrease in absorbance deriving from the continuous oxidation of NADH to NAD^+ produced by a multi-enzymatic cascade triggered by LbHp90-catalyzed ATP hydrolysis is followed spectrophotometrically over the course of 15 min (for details see Appendix B). All the experiments were normalized using the native ATPase activity of LbHsp90 measured in the presence of DMSO, the co-solvent selected for compounds solubilization.
# Figure A1 Enzymatic cascade reactions to spectroscopically evaluate L. Hsp90 ATPase kinetics. The ADP produced by ATP hydrolysis during the chaperone cycle reacts with PEP (phosphoenolpyruvate) to form pyruvate in a reaction catalyzed by the enzyme pyruvate kinase (PK), whereby ATP is regenerated. Pyruvate then continues the cascade process and is reduced to lactic acid by action of lactate dehydrogenase (LDH), whereby NADH is oxidized to NAD^+.
# LbHsp90 inhibition (%) = (1 − k/knative) * 100 k = ΔAbs/min = extrapolated apparent kinetic constant (Abs/min)
structure (smiles),measurement,setting,value
"COC1=C2C[C@@H](C)C[C@H](OC)[C@H](O)[C@@H](C)/C=C(\C)[C@H](OC(N)=O)[C@@H](OC)/C=C\C=C(/C)C(=O)NC(=CC1=O)C2=O [GA, geldanamycin]",IC50,[1],140 ± 40 nM
same,round amastigote-like cells (morphological differentiation),[2],~40%
same,inhibition at 10 µM,"LbHsp90; GA dose-response, 10 μM",0.1 ± 0.02%
same,inhibition at 15 µM,"LbHsp90; GA dose-response, 15 μM",0.2 ± 0.05%
same,inhibition at 20 µM,"LbHsp90; GA dose-response, 20 μM",0.3 ± 0.08%
same,inhibition at 50 µM,"LbHsp90; GA dose-response, 50 μM, read-out: LbHsp90 Inhibition (%)",0.7 ± 0.04%
same,inhibition at 100 µM,"LbHsp90; GA dose-response, 100 μM",6.5 ± 0.9%
same,inhibition at 200 µM,"LbHsp90; GA dose-response, 200 μM",30.7 ± 1.2%
same,inhibition at 400 µM,"LbHsp90; GA dose-response, 400 μM",52.3 ± 0.8%
same,inhibition at 600 µM,"LbHsp90; GA dose-response, 600 μM",76.9 ± 3%
same,inhibition at 800 µM,"LbHsp90; GA dose-response, 800 μM",90.5 ± 2.5%
same,inhibition at 1000 µM,"LbHsp90; GA dose-response, 1000 μM (1 mM), 1 mM ATP",99 ± 0.9%
same,inhibition at 1200 µM,"LbHsp90; GA dose-response, 1200 μM",> 99%
same,inhibition at 50 µM,"LbHsp90; read-out: LbHsp90 Inhibition (%), compound 50 μM, 3.5 μM LbHsp90, 1 mM ATP",< 0.05%
